According to patent US11135145B2 (priority 2015, dated 2021):
“And” between values parts separate entries of the source, which are not always exact repeats. Equal entries are not always repeated. Where two headings read alike, the source gives them in different places.

Columns and labels:
[1] = system: NQO-1 antioxidant response element (NQO-1 - ARE); assay: NQO-1-ARE luciferase reporter HepG2 cell line; type: cell-based, human; details: for NQO-1—ARE transcription in HepG2 cells (in words): 5 μM; for NQO-1 - ARE transcription, normalised to positive control (blank = 0%, 10 μM trans-resveratrol = 100%): 5 μM single compound; for NQO-1 - ARE transcription, normalised to positive control (blank = 0%, 10 μM trans-resveratrol = 100%) / NQO-1 - ARE transcription, normalised to positive control: HepG2, 6 hours, n = 3, ± SD
Description: A pGL4.22[luc2CP/puro] reporter vector containing NQO-1-ARE was transfected into the HepG2 cell line according to the method set forth in Xue et al (Biochem J 443: 213-222, (2012)). Transfected HepG2 cells were selected with puromycin (1 μg/ml). After culture for 3 weeks, puromycin-resistant cells were screened for luciferase activity after treatment with 4 μM sulforaphane for 6 hours. After validation of positive clones by measuring luciferase activity, the NQO-1-ARE stable cell line was expanded in selection media.
(§1) Stable transfectant cell line was incubated with and without test compounds for 6 hours in MEM with 10% fetal calf serum and 2 mM glutamine under an atmosphere of 5% CO2 in air, 100% humidity and 37° C. For the reporter assay, 100 μl Cell Culture Lysis Reagent (CCLR, Promega) was added to cell and shaken gently for 30 minutes. The mixture of cell lysate was centrifuged (12,000 g, 5 minutes, 4° C.) and an aliquot (20 μl) of supernatant used in the reporter assay. The luciferase activity was determined using a Luciferase Assay System (Promega). The luciferase response is given in Relative Light Units (RLU).
(§2) These were produced by transfection of a pGL4.22[luc2CP/puro] reporter vector containing NQO1-ARE or GLO1-ARE into the HepG2 cell line. Transfected HepG2 cells were selected with puromycin (1 μg/ml). After culture for 3 weeks, puromycin-resistant cells were screened for luciferase activity after treatment with 4 μM SFN for 6 h. After validation of positive clones by measuring luciferase activity, the stable cell line was expanded in selection media and thereafter used in studies for screening of bioactive compounds and synergism. Stable transfectant cell lines were incubated with and without bioactive compounds and combination of tRES and HESP (0.625-5.0 μM) for 6 h in MEM medium with 10% fetal calf serum and 2 mM glutamine under an atmosphere of 5% CO2 in air, 100% humidity and 37° C. This incubation period was optimum to judge initial rate of increase in transcriptional response in cells treated with compounds without increase in untreated controls. For the reporter assay, 100 μl Cell Culture Lysis Reagent (CCLR, Promega, Southampton, UK) was added to cell and shaken gently for 30 min. The mixture of cell lysate was centrifuged (12,000 g, 5 min, 4° C.) and an aliquot (20 μl) of supernatant used in the reporter assay. The luciferase activity was determined using a Luciferase Assay System (Promega). The luciferase response is given in Relative Light Units (RLU). Data are corrected for blank response and normalised to the highest effect (100%) achieved with 10 μM tRES. Data of normalised responses (blank=0%, 10 μM tRES=100%) for varied bioactive concentrations are fitted by non-linear regression to a dose-response curve, E=Emax×[Bioactive]^n/(EC50^n+[Bioactive]^n), solving for EC50 and n (logistic regression coefficient—also called the Hill coefficient). Nrf2-dependent transcriptional response was verified by siRNA silencing of Nrf2, as described in Xue et al., Biochem J 443, 213-222 (2012).

[2] = system: glyoxalase 1 antioxidant response element (GLO1-ARE); assay: Stable transfectant GLO1-ARE luciferase reporter HepG2 cell line; type: cell-based, human; details: for GLO1-ARE transcription, normalised to positive control (blank = 0%, 10 μM trans-resveratrol = 100%): 5 μM single compound; for GLO1-ARE transcription, normalised to positive control (blank = 0%, 10 μM trans-resveratrol = 100%) / GLO1-ARE transcription, normalised to positive control: 6 hours, n = 3, ± SD; for Emax / EC50: Homo sapiens; for Emax: 10 μM tRES = 100%
Description: A pGL4.22[luc2CP/puro] reporter vector containing GLO1-ARE was transfected into the HepG2 cell line according to the method set forth in Xue et al. (Biochem. J., 443, 213-222 (2012)). Transfected HepG2 cells were selected with puromycin (1 μg/ml). After culture for 3 weeks, puromycin-resistant cells were screened for luciferase activity after treatment with 4 μM sulforaphane for 6 hours. After validation of positive clones by measuring luciferase activity, the GLO1-ARE stable cell line, R1F3, was expanded in selection media.
as §1, with “line R1F3” for “line”
as §2

ICAM1 mRNA = assay: ICAM1 mRNA, focused quantitative mRNA profiling; type: cell-based, human; details: HAECs
HO-1 mRNA = assay: HO-1 (HMOX1) mRNA by digital mRNA profiling (NanoString nCounter); type: cell-based; details: human dermal foreskin BJ fibroblasts; 5 μM of each compound; 12 hours; n = 3; ± SD
Description: (§3) Human dermal foreskin BJ fibroblasts at cumulative population doubling of 22 were purchased from the European Collection of Animal Cell Cultures (Porton Down, UK). They were cultured in Eagle's Minimum Essential Medium (MEM) with 10% fetal calf serum and 2 mM glutamine under an atmosphere of 5% CO2 in air, 100% humidity and 37° C.

GSH = assay: Cellular GSH content; type: cell-based, human; details: HAECs, BJ fibroblasts and HepG2 cells; 5 μM single compound
[3] = system: matrix metalloproteinase-3 protein (MMP); assay: Cellular MMP-3 protein marker; type: cell-based, human; details: BJ fibroblasts; 5 μM
[4] = HATFF study: total urinary metabolites of tRES and HESP (LC-MS/MS); type: in vivo, human; details: urine
[5] = system: oxidised glutathione (GSSG); assay: Cellular GSSG content; type: cell-based, human; details: HAECs, BJ fibroblasts and HepG2 cells; 5 μM single compound
[6] = dietary supplement of 150 mg HESP (Takumi et al.); cited from earlier work
[7] = reviewed in Vang et al. and Parhiz et al.; cited from earlier work
NQO-1 mRNA = NQO-1 mRNA by digital mRNA profiling (NanoString nCounter); type: cell-based; details: human dermal foreskin BJ fibroblasts; 5 μM of each compound; 12 hours; n = 3; ± SD
Description: as §3

human BJ fibroblasts = assay: Cytotoxicity in human BJ fibroblasts in primary culture; type: cell-based; details: for toxicity (cytotoxicity): individually or with 5 μM combination with primary bioactive compound, concentrations ≤20 μM
Description: Primary human aortal endothelial cells (HAEC) were purchased from Lonza (Slough, U.K). HAEC cells were grown in proprietary large vessel endothelial cell basal media supplemented with large vessel endothelial cell growth supplement (containing hydrocortisone, human epidermal growth factor, human fibroblast growth factor with heparin and in 2% (/v/) FBS), 25 μg/ml gentamicin and 50 ng/ml amphotericin B. Human dermal foreskin BJ fibroblasts at cumulative population doubling of 22 were purchased from the European Collection of Animal Cell Cultures (Porton Down, UK). They were cultured in MEM medium with 10% fetal calf serum and 2 mM glutamine under an atmosphere of 5% CO2 in air, 100% humidity and 37° C.

[8] = patients with type 2 diabetes; 1.7 g metformin per day; cited from earlier work
human hair follicle = details: WO 2014/095289 Example 3; cited from earlier work
NQO-1 gene expression = details: WO 2014/095289 Example 4; cited from earlier work
HO-1 gene expression = details: WO 2014/095289 Example 4; cited from earlier work
[9] = compound alone, HepG2 reporter, 6 h, read-out: EC50 for GLO1-ARE transcriptional response

With `O=C1CC(c2ccc(O)c(O)c2)Oc2cc(O)cc(O)c21` (stereo not drawn) [Eriodictyol, 2-(3,4-Dihydroxyphenyl)-5,7-dihydroxy-4-chromanone] the “NQO-1—ARE transcription in HepG2 cells (in words)” value [1] was “up-regulate” and the “NQO-1 - ARE transcription, normalised to positive control (blank = 0%, 10 μM trans-resveratrol = 100%)” value [1] was 95.3 ± 14.7%.

For `O=C1C[C@@H](c2ccc(O)cc2)Oc2cc(O)cc(O)c21` [Naringenin, naringenin, reference compound], the “NQO-1—ARE transcription in HepG2 cells (in words)” value [1] was “does not up-regulate” and the “NQO-1 - ARE transcription, normalised to positive control (blank = 0%, 10 μM trans-resveratrol = 100%)” value [1] was −2.75 ± 5.24%.

In the case of `Oc1cc(O)cc(/C=C/c2ccc(O)c(O)c2)c1` [Piceatannol, piceatannol], the “NQO-1 - ARE transcription, normalised to positive control (blank = 0%, 10 μM trans-resveratrol = 100%)” value [1] is reported as 66.6 ± 2.4% and the “GLO1-ARE transcription, normalised to positive control (blank = 0%, 10 μM trans-resveratrol = 100%)” value ([2]; HepG2) is reported as 61.3 ± 31.0%.

For `COc1cc(/C=C/c2ccc(O)cc2)cc(OC)c1` [Pterostilbene, pterostilbene], the “NQO-1 - ARE transcription, normalised to positive control (blank = 0%, 10 μM trans-resveratrol = 100%)” value [1] was 41.8 ± 2.7% and the “GLO1-ARE transcription, normalised to positive control (blank = 0%, 10 μM trans-resveratrol = 100%)” value ([2]; HepG2) was 37.5 ± 18.3%.

In the case of `COc1ccc(C2CC(=O)c3c(O)cc(O)cc3O2)cc1O` (stereo not drawn) [hesperetin, 2,3-Dihydro-5,7-dihydroxy-2-(3-hydroxy-4-methoxyphenyl)-4H-1-benzopyran-4-one], the “ICAM1 mRNA” value (ICAM1 mRNA; 5 μM HESP individually, 6 h post-treatment) is reported as “tended to increased”, the “HO-1 mRNA (relative mRNA copy numbers as a % of vehicle control)” value (HO-1 mRNA) is reported as 95.4 ± 3.7 % of vehicle control and the “NQO-1 - ARE transcription, normalised to positive control (blank = 0%, 10 μM trans-resveratrol = 100%)” value [1] is reported as 7.9 ± 0.7%. The “cellular level of GSH” value (GSH) was “did not change”, the “cellular MMP-3 protein” value [3] was “increase” and the “eriodictyol (demethylated HESP) in study samples” value [4] was “no eriodctyol (demethylated HESP), was detected”. The “cellular level of GSSG” value [5] was “did not change”, the “peak plasma concentration of HESP” value [6] was 6.7 µM and the “safety assessments (tolerability)” value [7] was “highly tolerated”. The “NQO-1 mRNA (relative mRNA copy numbers as a % of vehicle control)” value (NQO-1 mRNA) was 93.0 ± 3.5 % of vehicle control, the “GLO1-ARE transcription, normalised to positive control (blank = 0%, 10 μM trans-resveratrol = 100%)” value ([2]; HepG2) was 13.0 ± 1.6% and the “logistic regression coefficient n, GLO1-ARE response” value ([2]; HESP alone) was 2.01±0.02. The Emax ([2]; HepG2, compound alone) was 24.4 ± 0.1%, the EC50 [2, 9] was 0.59 ± 0.01 µM and the “toxicity (cytotoxicity)” value (human BJ fibroblasts; BJ fibroblasts) was “no toxicity”. The “viability of BJ cells in vitro” value (human BJ fibroblasts; HESP (40 μM) with and without 5 μM tRES) was “minor decrease”.

In the case of `CN(C)C(=N)N=C(N)N` [metformin], the ΔOGIS [8] is listed as “+54 mlmin^−1m^−2”.

For `C[S+]([O-])CCCCN=C=S` (stereo not drawn) [sulforaphane], the “human hair follicle growth” value (human hair follicle) is given as “significantly up-regulates”, the “NQO-1 gene expression in human hair follicles” value (NQO-1 gene expression) is given as “significantly up-regulates” and the “HO-1 gene expression in human hair follicles” value (HO-1 gene expression) is given as “significantly up-regulates”.

In the case of `Oc1ccc(/C=C/c2cc(O)cc(O)c2)cc1` [trans-resveratrol], the “ICAM1 mRNA” value (ICAM1 mRNA; 5 μM tRES individually, 48 h post-treatment) is reported as “tended to increased”, the “NQO-1 - ARE transcription, normalised to positive control” value ([1]; 0.625 μM trans-resveratrol, 0 μM hesperetin) is reported as 1.9 ± 8.6% and the “NQO-1 - ARE transcription, normalised to positive control” value ([1]; 1.25 μM trans-resveratrol, 0 μM hesperetin) is reported as 6.4 ± 2.5%. The “NQO-1 - ARE transcription, normalised to positive control” value ([1]; 2.5 μM trans-resveratrol, 0 μM hesperetin) was 15.7 ± 6.7%, the “NQO-1 - ARE transcription, normalised to positive control (blank = 0%, 10 μM trans-resveratrol = 100%)” value [1] was 58.0 ± 2.5% and 56.9 ± 1.7% and the “NQO-1 - ARE transcription, normalised to positive control” value ([1]; 10 μM trans-resveratrol, 0 μM hesperetin (positive control = 100%)) was 100.0 ± 10.0%. The “cellular level of GSH” value (GSH) was “did not change”, the “cellular MMP-3 protein” value [3] was “decreases” and the “cellular level of GSSG” value [5] was “did not change”. For the same compound, the “GLO1-ARE transcription, normalised to positive control” value ([2]; 0.625 μM trans-resveratrol, 0 μM hesperetin, HepG2) was 4.0 ± 2.2%, the “GLO1-ARE transcription, normalised to positive control” value ([2]; 1.25 μM trans-resveratrol, 0 μM hesperetin, HepG2) was 19.2 ± 7.6% and the “GLO1-ARE transcription, normalised to positive control” value ([2]; 2.5 μM trans-resveratrol, 0 μM hesperetin, HepG2) was 53.8 ± 7.4%. For the same compound, the “GLO1-ARE transcription, normalised to positive control (blank = 0%, 10 μM trans-resveratrol = 100%)” value ([2]; HepG2) was 67.6 ± 14.5%, the “GLO1-ARE transcription, normalised to positive control” value ([2]; 10 μM trans-resveratrol, 0 μM hesperetin (positive control = 100%), HepG2) was 100.0 ± 2.9% and the “predicted increase of GLO1-ARE transcriptional response” value ([2]; 0.1-1.0 tRES in the presence of 5 μM HESP) was 3-79 fold. For the same compound, the “increased GLO1-ARE transcriptional response over additive effects” value ([2]; 0.1-1.0 tRES in the presence of 5 μM HESP, predicted) was “up to 79%”, the “Emax of tRES, GLO1-ARE response” value ([2]; 0.625-10 μM tRES with 5 μM HESP) was “maintaining the Emax” and the EC50 ([2]; HepG2, 0.625-10 μM tRES with 5 μM HESP, read-out: EC50 of tRES for GLO1-ARE transcriptional response) was 1.46 ± 0.1 µM. For the same compound, the Emax ([2]; HepG2, compound alone) was 100 ± 8.9%, the EC50 [2, 9] was 2.52 ± 0.19 µM and the “toxicity (cytotoxicity)” value (human BJ fibroblasts; BJ fibroblasts) was “no toxicity”. The cell number (human BJ fibroblasts; tRES (5 μM) with 0.625 μM HESP, BJ fibroblasts) was “minor increase” and the “viability of BJ cells in vitro” value (human BJ fibroblasts; tRES (40 μM) with 5 μM HESP) was “minor decrease”.
